# Reference: paper PMC12040169 (PLOS Biology, 2025)
# Test: in vitro
# Conditions: human, hela cells, % viability
row,Compound,"viability at 28.5 h, 10 µM"
1,NC(=S)N1N=C(c2ccccc2)CC1c1ccccc1 (centres unmarked) [CBK288435],95.6%
2,COc1cccc(-c2cc3c(=S)[nH]ccn3n2)c1 [CBK288437],88%
3,COc1ccc(-c2cc3n[nH]c(=O)n3c(C)n2)cc1 [CBK288439],91.1%
4,Cc1cc(-c2c(C)n(-c3ccccc3)[nH]c2=O)n2ncnc2n1 [CBK288441],89.4%
5,O=C1CCCC2=C1C(c1ccccc1O)c1c([nH][nH]c1=O)N2 (centres unmarked) [CBK288442],90.2%
6,Cc1ccc(-c2n[nH]c(=O)o2)cc1Br [CBK288443],85.9%
7,O=C(O)CCCCCNC(=S)Nc1cccc(Cl)c1 [CBK288446],88.1%
8,COc1ccc(-c2[nH]c(=S)ncc2-c2ccccc2)c(O)c1 [CBK288447],91.5%
9,CC1(C)N=C(c2ccc(Cl)cc2Cl)C(=S)N1 [CBK288449],88.3%
10,CC(=O)NC(=S)Nc1ccc(Oc2ccccc2)cc1 [CBK288454],86.6%
11,O=C1NC(=O)C(c2ccccc2)(c2ccccn2)N1 (centres unmarked) [CBK288455],97%
12,COc1ccc(CCNC(=O)C(N)=O)cc1OC [CBK288457],90.9%
13,O=c1[nH]nc2c(S(=O)(=O)N3CCCC3)cccn12 [CBK288460],85.9%
14,Cc1cc(N2C(=O)NS(=O)(=O)c3cccnc32)ccc1F [CBK288461],90.5%
15,NS(=O)(=O)c1ccc(CCNCC2CCCCC2)cc1 [CBK288467],92.5%
16,O=C1/C(=N\O)c2cc(Cl)ccc2N1Cc1ccccc1 [CBK288468],91.5%
17,CCOc1ccc(-c2ccc(C#N)c(=S)[nH]2)cc1 [CBK288470],88.2%
18,Cc1ccccc1C(=O)NC(=S)NCCN1CCOCC1 [CBK288475],94.5%
19,COc1ccccc1CNc1ccc(S(N)(=O)=O)cc1 [CBK288476],92.7%
20,CC(C)(C)OC(=O)N1CCC2(CC1)N=C(c1ccccc1)C(=S)N2 [CBK288478],112%
21,O=c1[nH]nc2cc(NCc3ccc(Cl)cc3)ncn12 [CBK288479],114%
22,CN(CCCNC(=O)/C=N/O)CCCC(C)(C)C [CBK288480],110%
23,O=C1/C(=N\O)c2ccccc2N1Cc1ccccc1 [CBK288484],99.7%

row,Compound,"viability at 28.5 h, 10 µM"
1,CCc1ccc(-c2cc3c(=O)[nH]nc(S)n3n2)cc1 [CBK288485],124%
2,S=c1[nH]cnc2c1[nH]c1ccc(Br)cc12 [CBK288487],102%
3,Cn1c(=S)[nH]c2c(-c3ccccc3)c[nH]c2c1=O [CBK288488],103%
4,CCCCC(=O)Nc1ccc(S(N)(=O)=O)cc1 [CBK288490],113%
5,CCCOc1ccc(Br)cc1/C=N/O [CBK288491],110%
6,O=C(NC(=S)N1C[C@@H]2C[C@@H](C1)c1cccc(=O)n1C2)c1ccco1 [CBK288492],110%
7,N#CC1C(=S)NC2=C(CCCC2)C12CCCCC2 (centres unmarked) [CBK288493],103%
8,COc1ccccc1CN1CCc2[nH]c(=S)[nH]c(=O)c2C1 [CBK288495],104%
9,S=c1cc(SCc2ccccc2Cl)nc[nH]1 [CBK288496],95.2%
10,O=C(O)c1ccc(COc2cccc(/C=N\O)c2)cc1 [CBK288501],91.9%
11,Cc1nnc(S)n(Cc2ccc(F)cc2)c1=O [CBK288502],106%
12,COCc1cc2n[nH]c(=O)n2c(-c2ccccc2)n1 [CBK288507],98.3%
13,O=c1[nH]nc2c(Sc3cccc(F)c3)nccn12 [CBK288508],90.4%
14,CCN(CC)CCOC(=O)NS(=O)(=O)c1ccc(Cl)cc1 [CBK288510],97.6%
15,O=C(CCCCCN1C(=O)c2ccccc2C1=O)NO [CBK288514],80.2%
16,O=c1c([N+](=O)[O-])c[nH]c2nc(-c3ccncc3)nn12 [CBK288531N],87.8%
17,Cc1nc(N)sc1-c1csc(Nc2ccc(Cl)cn2)n1 [CBK288532],61.4%
18,O=[N+]([O-])c1ccc2c(c1)C(O)n1nc(-c3ccncc3)nc1S2 (centres unmarked) [CBK288533],94.7%
19,Fc1ccc(Cn2nnc(-c3ccncc3)n2)c(Cl)c1 [CBK288534],102%
20,O=c1oc2ccccc2c2nc(-c3ccncc3)ncc12 [CBK288536],108%
21,Nc1[nH]ncc1-c1nnc(Nc2ccc3c(c2)OCO3)o1 [CBK288537],85.1%
22,O=c1[nH]cccc1-c1noc(-c2cnccn2)n1 [CBK288538],90%
23,CSc1nnc2n3ncnc3c3c4c(sc3n12)CCCC4C (centres unmarked) [CBK288542],97.3%

row,Compound,"viability at 28.5 h, 10 µM"
1,O=C(Cc1nc(-c2ccncc2)n[nH]1)NC1CCCCC1 [CBK288544],110%
2,Cc1nc(-c2ccncc2)c2c(C)nn(-c3ccc(F)cc3)c2n1 [CBK288545],89.2%
3,Nc1ncnc2nc(-c3ccncc3)nn12 [CBK288550],102%
4,Cc1c(-c2ccnc(N3CCOCC3)n2)cnc2nc(-c3ccncc3)nn12 [CBK288551],98.6%
5,CC(=O)c1c(C)nc2nc(-c3ccncc3)nn2c1C [CBK288552],106%
6,CCN1CCCC1CNC(=O)C1(O)c2ccccc2NC(=O)N1c1ccccc1 (centres unmarked) [CBK288554],90.5%
7,CCNc1n[nH]c(N)c1-c1nc(-c2ccc(OC)cc2)no1 [CBK288557],94.2%
8,c1ccc2c(c1)OCC(c1nn3c(-c4ccncc4)nnc3s1)O2 (centres unmarked) [CBK288560],107%
9,CNc1nc(N(C)C)nc(-n2cnc(SCCOc3ccccc3C)n2)n1 [CBK288564],92.4%
10,Cc1ccc(N2CC(c3nc(-c4ccncc4)no3)CC2=O)cc1Cl (centres unmarked) [CBK288582],109%
11,O=C(NCc1ccc2c(c1)CCN2C(=O)c1ccncc1)c1cccnc1 [CBK288585],91.4%
12,O=C(NCc1ccc2c(c1)CCN2C(=O)c1ccncc1)c1cccc(F)c1 [CBK288586],102%
13,Cc1cc(N2CCOCC2)nc2ccc(NC(=O)c3ccncc3)cc12 [CBK288587],99.3%
14,Clc1ccc(Nc2nnc(-c3[nH]ncc3NCc3ccncc3)o2)cc1 [CBK288588],99%
15,COCCNC(=O)C1(O)c2ccccc2NC(=O)N1c1cccc(OC)c1 (centres unmarked) [CBK288589],110%
16,COc1cc(Nc2cc(-n3nc(C)cc3C)ncn2)cc(OC)c1OC [CBK288594],93.2%
17,CCOc1ccccc1-c1noc(-c2nn(-c3ccc(C)cc3)ccc2=O)n1 [CBK288597],95.7%
18,O=C(NCCc1nc2cccnc2n1-c1ccccc1)c1ccncc1 [CBK288599],90.7%
19,Fc1cc(F)cc(-c2nnc(Cc3nc(-c4ccncc4)no3)o2)c1 [CBK288602],98.6%
20,CCC(=O)Nc1ccc(-n2cnc(C(=O)NCc3cccnc3)c2)nc1 [CBK288603],115%
21,O=C(Cc1nnc(-c2ccncc2)o1)NCCC1=CCCCC1 [CBK288605],117%
22,Cc1c(-c2noc(-c3ccc4c(c3)OCO4)n2)nnn1Cc1ccccc1 [CBK288609],116%
23,COc1ccccc1CNc1nccc(-n2ccc(C)n2)n1 [CBK288611],111%

row,Compound,"viability at 28.5 h, 10 µM"
1,COc1cccc(CNc2nccc(-n3nc(C)cc3C)n2)c1 [CBK288612],96%
2,Cc1cc(C)n(-c2ccnc(NCc3cccnc3)n2)n1 [CBK288614],109%
3,Cc1cc(C)n(-c2ccnc(NCCc3cccnc3)n2)n1 [CBK288615],94.7%
4,Cc1cccc(Nc2nccc(-n3ccc(C)n3)n2)c1 [CBK288616],79.7%
5,CC(C)n1cnc2ccc(-c3noc(-c4nccc5ccccc45)n3)cc21 [CBK288617],109%
6,O=C(c1ccncc1)N1CCc2cc(-c3csc(C4CC4)n3)ccc21 [CBK288618],94.5%
7,c1cncc(CN2CCCC(OCc3nc(-c4ccncc4)no3)C2)c1 (centres unmarked) [CBK288621],114%
8,O=C(CN1C(=O)c2ccncc2C1=O)Nc1ccccn1 [CBK288624],89.9%
9,O=C(Nc1nc2ccccc2[nH]1)c1ccncc1 [CBK288626],95.3%
10,Cc1c(CNC(=O)c2cc(-c3ccncc3)nc3ccc(Cl)cc23)cnn1C [CBK288627],99.5%
11,c1ccc(-c2nnc(C3CCNCC3)[nH]2)nc1 [CBK288629G],97%
12,O=C(Nc1ccc2n(c1=O)C[C@H]1C[C@@H]2CN(C(=O)Cc2cccs2)C1)c1ccccc1 [CBK288709],82.4%
13,CC(=O)N1C[C@@H]2C[C@H](C1)c1ccc(NS(=O)(=O)c3cccc(F)c3)c(=O)n1C2 [CBK288710],105%
14,O=C(Nc1ccc(=O)n2c1[C@@H]1C[C@@H](CN(C(=O)COc3ccccc3)C1)C2)c1cncnc1 [CBK288712],109%
15,O=C(Nc1ccc(=O)n2c1[C@@H]1C[C@@H](CN(C(=O)c3ccc(F)cc3)C1)C2)c1cncnc1 [CBK288713],112%
16,CC(=O)N1CCN(CC[C@@H]2CC[C@H](O)[C@@H](C(=O)N(C)Cc3ccccc3)O2)CC1 [CBK288716],93.3%
17,CC(C)NC(=O)[C@H]1O[C@H](CCN2CCOCC2)CC[C@@H]1O [CBK288720],108%
18,O=C([C@H]1O[C@H](CCN2CCN(c3ccccc3)CC2)CC[C@@H]1O)N1CCOCC1 [CBK288724],98.5%
19,O=C(Nc1ccccc1)[C@H]1O[C@H](CCN2CCN(c3ccccc3)CC2)CC[C@@H]1O [CBK288725],84.1%
20,C#CCNC(=O)[C@H]1O[C@H](CCN(C)CC#C)CC[C@@H]1O [CBK288727],89.6%
21,C#CCNC(=O)[C@H]1O[C@H](CCN2CCOCC2)CC[C@@H]1O [CBK288729],102%
22,O=C([C@H]1O[C@H](CCN2CCN(c3ccccn3)CC2)CC[C@@H]1O)N1CCCC1 [CBK288730],83.3%

# Same assay, conditions: human, hela cells, % viability, bulk resorufin, single well
row,Compound,"viability at 28.5 h, 10 µM"
1,NC(=O)C(=O)c1cn(Cc2ccccc2)c2ccccc12 [CBK288473],96.2%
